Assay results taken from publication PMC10876879, “Sustained silencing peanut allergy by xanthopurpurin is associated with suppression of peripheral and bone marrow IgE-producing B cell” (Frontiers in Immunology, 2024).
Where two headings read alike, the source gives them in different places.

Columns and labels:
[1] = system: IgE production; assay: IgE production in vitro, other R. cordifolia compounds (data not shown); assay type: cell-based
[2] = system: IgE production; assay: IgE production in vivo, other R. cordifolia compounds (data not shown)
[3] = system: IgE production; conditions: cited from earlier work
[4] = system: PN-allergic mice; conditions: oral berberine alone; cited from earlier work
[5] = parameters: method as in PMID 28208101; conditions: cited from earlier work
[6] = system: IgE; parameters: method as in PMID 26185589; conditions: cited from earlier work

## 1,3-dihydroxy-2-ethoxymethyl-9,10 anthraquinone [alizarin]
[1]
  IgE production in vitro: inhibited IgE production only in vitro
[2]
  IgE production in vivo: failed in vivo

## COc1ccc2cc3[n+](cc2c1OC)CCc1cc2c(cc1-3)OCO2 [berberine]
[3]
  IgE production in vitro: significantly inhibited the IgE production
[4]
  PN-specific IgE levels: did not reduce PN-specific IgE levels
  Protection from anaphylaxis: failed to protect PN-allergic mice from anaphylaxis
[5]
  Bioavailability: poor

## O=C1c2ccccc2C(=O)c2c(O)c(O)cc(O)c21 [purpurin, 1,2,4-trihydroxyanthraquinone]
[1]
  IgE production in vitro: inhibited IgE production only in vitro
[2]
  IgE production in vivo: failed in vivo

## omalizumab: anti-IgE therapy, neutralizes free serum IgE
[6]
  Anaphylactic reactions during oral immunotherapy (OIT): greatly reduce anaphylactic reactions
